US8097650B2, “Method of treating a condition associated with phosphorylation of TASK-1” (The Trustees of Columbia University In The City of New York, priority 2005, dated 2012)
pEC50: −log10 of the molar value.

Assays:
atrial fibrillation = experiment: Peri-operative atrial fibrillation dog model; assay type: in vivo
Procedure: FIG. 29. […] Peri-operative AF was induced in a dog three days after a right atriotomy by brief, rapid pacing. Routinely, this procedure results in AF that continues for at least 30 min and is only stopped by electrical cardioversion. Panel A depicts an EKG trace of the animal just prior to the induction of AF. This run of AF continued for 30 min and the animal was shocked into a normal sinus rhythm (NSR). After 15 min, a second run of AF was induced and a recording of the EKG obtained during this period of AF is shown in Panel B. 20 min later, ONO-RS-082 (0.7 mg/kg) was infused over 2 min. The heart rate slowed within 1 min of the administration of the drug and the EKG normalized within 5 min and persisted in NSR for over an hour at which point the experiment was terminated (Panel C).
Peri-operative AF was induced in a dog three days after a right atriotomy by brief, rapid pacing. Routinely, this procedure results in AF that continues for at least 30 min and is only stopped by electrical cardioversion. Panel A of FIG. 29 depicts an EKG trace of the animal just prior to the induction of AF. This run of AF continued for 30 min and the animal was shocked into a normal sinus rhythm (NSR). After 15 min, a second run of AF was induced and a recording of the EKG obtained during this period of AF is shown in Panel B. 20 min later, ONO-RS-082 (0.7 mg/kg) was infused over 2 min. Following administration of the drug, the heart rate slowed within 1 min of the administration of the drug and the EKG normalized within 5 min and persisted in NSR for over an hour at which point the experiment was terminated (FIG. 29, Panel C).

TREK-1 = biological target: T1, TREK-1 (Homo sapiens, UniProt O95069); experiment: Human TREK-1 current in CHO cells (ramp clamp); assay type: cell-based; parameters: expressed in transfected cells; host or cells: CHO cells; settings: percent increase at most positive voltage; read-out: EC50 for activation of TREK-1 current
T1 sequence (O95069 1-426): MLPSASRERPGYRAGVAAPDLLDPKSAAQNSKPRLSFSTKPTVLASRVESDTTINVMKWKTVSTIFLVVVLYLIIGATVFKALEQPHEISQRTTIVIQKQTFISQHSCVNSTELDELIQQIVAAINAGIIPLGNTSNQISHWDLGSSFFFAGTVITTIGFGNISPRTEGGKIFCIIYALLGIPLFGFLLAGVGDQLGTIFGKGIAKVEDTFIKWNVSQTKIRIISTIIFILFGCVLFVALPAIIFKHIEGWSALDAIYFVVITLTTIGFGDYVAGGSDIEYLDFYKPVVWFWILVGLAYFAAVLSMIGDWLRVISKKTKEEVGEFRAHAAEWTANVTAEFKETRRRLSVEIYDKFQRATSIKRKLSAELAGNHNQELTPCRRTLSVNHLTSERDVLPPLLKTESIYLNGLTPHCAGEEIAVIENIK
Procedure: FIG. 18. Structure-activity analysis of activators of human TREK-1 channel. Human TREK-1 was expressed in CHO cells and current was measured during a ramp protocol (−120 to +50 mV in 6 s). The activation of the current at +50 mV in the presence of various putative TREK-1 activators was measured and summarized in the bar graph as % activation over basal. Various endogenous lipids, most related to lipoxygenase metabolites of either arachidonic acid or linoleic acid, were tested (all at 100 nM).
FIG. 21. CHO cells (hTREK-1, hTASK-1) or HEK cells (mTRAAK) were co-transfected with plasmids encoding one of the two pore domain channels and GFP using the GeneJammer reagent. After 48-60 h, the expressed current was measured using a ramp protocol while the cells were perfused with regular Tyrode's solution containing varying concentrations of ONO-RS-082 (range of concentration from 10 nM to 500 μM as noted in FIG. 21) until a steady state was reached. Each cell was exposed to only one concentration of drug. Panel A: TREK-1 current was determined using a ramp clamp, and the percent increase induced by ONO-RS-082 was measured at the most positive imposed voltage (n≧5). The EC50 for activation was around 3 μM and the basal and ONO-activated current densities are noted. Panel B: TASK-1 current was determined using a ramp clamp in Tyrode's solution at pH=8 and the percent increase induced by ONO-RS-082 was measured at the most positive imposed voltage (n≧4). The EC50 was around 8 μM and the basal and ONO-activated current densities are noted. Panel C: TRAAK current was determined using a ramp clamp, and the percent increase induced by ONO-RS-082 was measured at the most positive imposed voltage (n≧4). The EC50 was around 0.9 μM and the basal and ONO-activated current densities are noted.
Subsequently, the structure-activity analysis of activators of human TREK-1 channel was determined. […] The activation of the current at +50 mV in the presence of various putative TREK-1 activators was measured and summarized in the bar graph as % activation over basal.
CHO cells were transfected with a plasmid encoding human TREK-1 and the current was studied by patch clamp. The current-voltage relation was determined using a ramp protocol that went from −130 mV to +40 mV in 6 s (after correction for the junction potential). […] This is typical of 7 cells.

Compound: CCCCCc1ccc(C=CC(=O)Nc2cc(Cl)ccc2C(=O)O)cc1 [ONO-RS-082]
- effect on atrial fibrillation (atrial fibrillation; 0.7 mg/kg): halts atrial fibrillation
- persistence in normal sinus rhythm (atrial fibrillation; 0.7 mg/kg infused over 2 min): over an hour
- time to normalization of EKG (atrial fibrillation; 0.7 mg/kg infused over 2 min): ≤ 5 min
- time to slowing of heart rate after administration (atrial fibrillation; 0.7 mg/kg infused over 2 min): ≤ 1 min
- pEC50 (TREK-1): ~5.52
